≈ marks a conversion by molar mass, not a printed value. Blank lines part the entries; values can stand above or below the compound they belong to.
Key:
Pseudomonas fluorescens [1] = assay: The compound was evaluated for antibacterial activity against Pseudomonas fluorescence at pH 8.0; type: functional
Pseudomonas fluorescens [2] = assay: The compound was evaluated for antibacterial activity against Pseudomonas fluorescence at pH 7.0; type: functional
Pseudomonas fluorescens [3] = assay: The compound was evaluated for antibacterial activity against Pseudomonas fluorescence at pH 9.0; type: functional
Pseudomonas fluorescens [4] = assay: The compound was evaluated for antibacterial activity against Pseudomonas fluorescence at pH 5.5; type: functional
Globisporangium ultimum = assay: The compound was evaluated for antifungal activity against the fungi Pythium ultimum; type: functional, organism-based
Escherichia coli = assay: The compound was evaluated for antibacterial activity against Escherichia coli at pH 7.0; type: functional
Aureobasidium pullulans [5] = assay: The compound was evaluated for antifungal activity against Aureobasidium pullulans at pH 7.5; type: functional
Staphylococcus aureus [6] = assay: The compound was evaluated for antibacterial activity against Staphylococcus aureus at pH 7.0; type: functional
Aspergillus niger [7] = assay: The compound was evaluated for antifungal activity against Aspergillus niger at pH 7.5; type: functional
Pseudomonas fluorescens [8] = assay: The compound was evaluated for antibacterial activity against the Pseudomonas fluorescence at pH 7.0; type: functional
Pseudomonas aeruginosa = assay: The compound was evaluated for antibacterial activity against Pseudomonas aeruginosa at pH 7.0; type: functional
[9] = system: Dolichospermum flos-aquae; assay: The compound was evaluated for antialgal activity against Anabaena flos-aquae; type: functional
[10] = system: Auxenochlorella pyrenoidosa; assay: The compound was evaluated for antialgal activity against Chlorella pyrenoidosa; type: functional
Aureobasidium pullulans [11] = assay: The compound was evaluated for antifungal activity against Aureobasidium pullulans at pH 7.5 (end point 25 p.p.m. in separate test); type: functional
Chaetomium globosum [12] = assay: The compound was evaluated for antifungal activity against Chaetomium globosum at pH 7.5 (end point <0.25 p.p.m. in separate test); type: functional
Pseudomonas fluorescens [13] = assay: The compound was evaluated for antifungal activity against Pseudomonas fluorescence in separate test(endopoint 0.25 p.p.m.) at pH 7.0; type: functional
Staphylococcus aureus [14] = assay: The compound was evaluated for antifungal activity against Staphylococcus aureus in separate test(endopoint 0.25 p.p.m.) at pH 7.0; type: functional
Pseudomonas fluorescens [15] = assay: The compound was evaluated for antibacterial activity against Pseudomonas fluorescence at pH 4.0 in trypticase soy broth medium; type: functional
Talaromyces funiculosus = assay: The compound was evaluated for antifungal activity against Penicillium funiculosum at pH 7.5 (end point 2.5 p.p.m. in separate test); type: functional
Pseudomonas fluorescens [16] = assay: The compound was evaluated for antibacterial activity against Pseudomonas fluorescence at pH 9.0 in trypticase soy broth medium; type: functional
Amorphotheca resinae [17] = assay: The compound was evaluated for antifungal activity against Cladosporium resinae at pH 7.5 (end point <0.25 p.p.m. in separate test); type: functional
Pseudomonas fluorescens [18] = assay: The compound was evaluated for antibacterial activity against Pseudomonas fluorescence at pH 7.0 in trypticase soy broth medium; type: functional
Aspergillus niger [19] = assay: The compound was evaluated for antifungal activity against Aspergillus niger at pH 7.5 (end point 0.25 p.p.m. in separate test); type: functional
Phytophthora capsici = assay: The compound was evaluated for antifungal activity against the fungi Phytophthora capsici; type: functional
Chaetomium globosum [20] = assay: The compound was evaluated for antifungal activity against Chaetomium globosum at pH 7.5 (end point 2.5 p.p.m. in separate test); type: functional
Pseudomonas fluorescens [21] = assay: The compound was evaluated for antibacterial activity against Pseudomonas fluorescence at pH 4.0; type: functional
Aureobasidium pullulans [22] = assay: The compound was evaluated for antifungal activity against Aureobasidium pullulans at pH 7.5 (end point <0.25 p.p.m. in separate test); type: functional
Amorphotheca resinae [23] = assay: The compound was evaluated for antifungal activity against Cladosporium resinae at pH 7.5 (end point 2.5 p.p.m. in separate test); type: functional

MIC (Pseudomonas fluorescens [1]): 50 µg/mL (≈ 118 µM) | MIC (Pseudomonas fluorescens [2]): 25 µg/mL (≈ 59.1 µM) | MIC (Pseudomonas fluorescens [3]): 50 µg/mL (≈ 118 µM) | MIC (Pseudomonas fluorescens [4]): > 100 µg/mL
SMILES: O=C1c2ccccc2C(=O)c2c(NCC(Cl)CO)ccc(NCC(Cl)CO)c21 (stereo not given)

EC50 (Globisporangium ultimum): 3.6 p.p.m. | MIC (Escherichia coli): > 250 µg/mL | MIC (Aureobasidium pullulans [5]): > 250 µg/mL | MIC (Staphylococcus aureus [6]): > 250 µg/mL | MIC (Aspergillus niger [7]): > 250 µg/mL | MIC (Pseudomonas fluorescens [8]): 4 µg/mL (≈ 11.4 µM) | MIC (Pseudomonas aeruginosa): > 250 µg/mL
SMILES: O=C1c2ccccc2C(=O)c2c(OCC3CO3)ccc(OCC3CO3)c21 (stereo not given)

SMILES: Cn1sc(Cl)cc1=O.Cn1sccc1=O
MIC [9]: 0.1 µg/mL | MIC [10]: 0.3 µg/mL

SMILES: O=C1c2ccccc2C(=O)c2c(NCC3CO3)ccc(NCC3CO3)c21 (stereo not given)
MIC (Aureobasidium pullulans [11]): 0.8 µg/mL (≈ 2.28 µM) | MIC (Chaetomium globosum [12]): 0.4 µg/mL (≈ 1.14 µM) | MIC (Pseudomonas fluorescens [13]): 0.2 µg/mL (≈ 0.571 µM) | EC50 (Globisporangium ultimum): 0.03 p.p.m. | MIC (Staphylococcus aureus [14]): 0.2 µg/mL (≈ 0.571 µM) | MIC (Pseudomonas fluorescens [15]): 0.2 µg/mL (≈ 0.571 µM) | MIC (Pseudomonas fluorescens [1]): 0.05 µg/mL (≈ 0.143 µM) | MIC [9]: < 2 µg/mL | MIC (Escherichia coli): 250 µg/mL (≈ 714 µM) | MIC (Talaromyces funiculosus): 0.8 µg/mL (≈ 2.28 µM) | MIC (Pseudomonas fluorescens [16]): 0.2 µg/mL (≈ 0.571 µM) | MIC (Pseudomonas fluorescens [2]): 0.05 µg/mL (≈ 0.143 µM) | MIC (Staphylococcus aureus [6]): < 0.13 µg/mL | MIC (Amorphotheca resinae [17]): 0.4 µg/mL (≈ 1.14 µM) | MIC (Pseudomonas fluorescens [8]): < 0.13 µg/mL | MIC (Pseudomonas aeruginosa): 63 µg/mL (≈ 180 µM) | MIC (Pseudomonas fluorescens [3]): 0.05 µg/mL (≈ 0.143 µM) | MIC (Pseudomonas fluorescens [18]): 0.2 µg/mL (≈ 0.571 µM) | MIC [10]: < 2 µg/mL | MIC (Aspergillus niger [19]): 0.4 µg/mL (≈ 1.14 µM) | MIC (Phytophthora capsici): 0.2 µg/mL (≈ 0.571 µM) | MIC (Pseudomonas fluorescens [4]): 0.025 µg/mL (≈ 0.0714 µM)

MIC (Pseudomonas fluorescens [1]): 0.4 µg/mL (≈ 0.781 µM) | MIC (Pseudomonas fluorescens [2]): 50 µg/mL (≈ 97.6 µM) | MIC (Pseudomonas fluorescens [3]): 0.2 µg/mL (≈ 0.39 µM) | MIC (Pseudomonas fluorescens [4]): 100 µg/mL (≈ 195 µM)
SMILES: O=C1c2ccccc2C(=O)c2c(NCC(Br)CO)ccc(NCC(Br)CO)c21 (stereo not given)

SMILES: CCCCNC(=O)OC#CCI
MIC (Chaetomium globosum [20]): 1.6 µg/mL (≈ 5.69 µM) | MIC (Talaromyces funiculosus): 0.8 µg/mL (≈ 2.85 µM) | MIC (Pseudomonas fluorescens [2]): 0.2 µg/mL (≈ 0.712 µM) | MIC (Pseudomonas fluorescens [21]): 50 µg/mL (≈ 178 µM) | MIC (Pseudomonas fluorescens [3]): 50 µg/mL (≈ 178 µM) | MIC (Aspergillus niger [19]): 1.6 µg/mL (≈ 5.69 µM) | MIC (Aureobasidium pullulans [22]): 0.1 µg/mL (≈ 0.356 µM) | MIC (Amorphotheca resinae [23]): 25 µg/mL (≈ 88.9 µM)

MIC (Pseudomonas fluorescens [8]): < 0.2 µg/mL
SMILES: CCCCCCCCn1sc(Cl)c(Cl)c1=O

SMILES: COCC(=O)N(c1c(C)cccc1C)C(C)C(=O)OC (stereo not given) [METALAXYL]
EC50 (Globisporangium ultimum): 0.017 p.p.m. | MIC (Phytophthora capsici): 0.4 µg/mL (≈ 1.43 µM)
